Test results from the NIST ThermoML archive (doi:10.1016/j.jct.2016.12.032).

Test: xn = mol fraction of the nth substance listed
Conditions: 100 kPa, Liquid; for viscosity: Capillary tube (Ostwald / Ubbelohde) method; for mass density: Vibrating tube method

O=C1CCCCO1 [1-oxacyclohexan-2-one] + CCCC[n+]1ccn(C)c1.O=S(=O)([N-]S(=O)(=O)C(F)(F)F)C(F)(F)F
Conditions	mass density [kg/m3]	viscosity [mPa·s]
293.15 K, x2 = 0	1108.53	3.68
293.15 K, x2 = 0.0532	1156.68	4.6
293.15 K, x2 = 0.1004	1196.3	5.91
293.15 K, x2 = 0.1504	1229.63	7.47
293.15 K, x2 = 0.1999	1257.2	8.95
293.15 K, x2 = 0.2988	1300.9	13.08
293.15 K, x2 = 0.4006	1337.77	17.95
293.15 K, x2 = 0.5005	1362.9	23.77
293.15 K, x2 = 0.5999	1384.82	30.89
293.15 K, x2 = 0.7	1402.18	37.58
293.15 K, x2 = 0.8013	1418.26	44.8
293.15 K, x2 = 0.8986	1429.23	52.57
298.15 K, x2 = 0	1103.96	3.3
298.15 K, x2 = 0.0532	1152.03	4.09
298.15 K, x2 = 0.1004	1191.61	5.26
298.15 K, x2 = 0.1504	1224.89	6.47
298.15 K, x2 = 0.1999	1252.42	7.78
298.15 K, x2 = 0.2988	1296.08	11.15
298.15 K, x2 = 0.4006	1332.91	15.14
298.15 K, x2 = 0.5005	1358.02	19.8
298.15 K, x2 = 0.5999	1379.92	25.62
298.15 K, x2 = 0.7	1397.27	31.17
298.15 K, x2 = 0.8013	1413.33	37.32
298.15 K, x2 = 0.8986	1424.29	43.18
303.15 K, x2 = 0	1099.44	2.98
303.15 K, x2 = 0.0532	1147.37	3.7
303.15 K, x2 = 0.1004	1186.86	4.58
303.15 K, x2 = 0.1504	1220.09	5.64
303.15 K, x2 = 0.1999	1247.58	6.74
303.15 K, x2 = 0.2988	1291.17	9.63
303.15 K, x2 = 0.4006	1327.96	12.92
303.15 K, x2 = 0.5005	1353.03	16.77
303.15 K, x2 = 0.5999	1374.9	21.34
303.15 K, x2 = 0.7	1392.22	25.71
303.15 K, x2 = 0.8013	1408.28	30.93
303.15 K, x2 = 0.8986	1419.22	35.78
308.15 K, x2 = 0	1094.83	2.7
308.15 K, x2 = 0.0532	1142.72	3.21
308.15 K, x2 = 0.1004	1182.16	4.08
308.15 K, x2 = 0.1504	1215.34	5.09
308.15 K, x2 = 0.1999	1242.79	6.06
308.15 K, x2 = 0.2988	1286.33	8.42
308.15 K, x2 = 0.4006	1323.08	11.04
308.15 K, x2 = 0.5005	1348.13	14.16
308.15 K, x2 = 0.5999	1369.99	18.33
308.15 K, x2 = 0.7	1387.29	21.9
308.15 K, x2 = 0.8013	1403.33	25.49
308.15 K, x2 = 0.8986	1414.26	29.16
313.15 K, x2 = 0	1090.27	2.47
313.15 K, x2 = 0.0532	1138.1	2.9
313.15 K, x2 = 0.1004	1177.47	3.67
313.15 K, x2 = 0.1504	1210.6	4.49
313.15 K, x2 = 0.1999	1238.01	5.31
313.15 K, x2 = 0.2988	1281.5	7.36
313.15 K, x2 = 0.4006	1318.2	9.61
313.15 K, x2 = 0.5005	1343.21	12.24
313.15 K, x2 = 0.5999	1365.03	15.74
313.15 K, x2 = 0.7	1382.31	18.59
313.15 K, x2 = 0.8013	1398.33	21.65
313.15 K, x2 = 0.8986	1409.25	24.7
318.15 K, x2 = 0	1085.71	2.25
318.15 K, x2 = 0.0532	1133.47	2.63
318.15 K, x2 = 0.1004	1172.79	3.24
318.15 K, x2 = 0.1504	1205.87	4.02
318.15 K, x2 = 0.1999	1233.25	4.72
318.15 K, x2 = 0.2988	1276.69	6.55
318.15 K, x2 = 0.4006	1313.34	8.49
318.15 K, x2 = 0.5005	1338.33	10.65
318.15 K, x2 = 0.5999	1360.13	13.7
318.15 K, x2 = 0.7	1377.38	15.98
318.15 K, x2 = 0.8013	1393.37	18.79
318.15 K, x2 = 0.8986	1404.27	21.14
323.15 K, x2 = 0	1081.16	2.09
323.15 K, x2 = 0.0532	1128.86	2.44
323.15 K, x2 = 0.1004	1168.12	2.96
323.15 K, x2 = 0.1504	1201.16	3.63
323.15 K, x2 = 0.1999	1228.6	4.26
323.15 K, x2 = 0.2988	1271.85	5.82
323.15 K, x2 = 0.4006	1308.45	7.49
323.15 K, x2 = 0.5005	1333.4	9.29
323.15 K, x2 = 0.5999	1355.18	11.2
323.15 K, x2 = 0.7	1372.41	13.85
323.15 K, x2 = 0.8013	1388.38	15.68
323.15 K, x2 = 0.8986	1399.26	17.85

CC1CC(=O)O1 (stereo unspecified) [4-methyl-2-oxetanone] + CCCC[n+]1ccn(C)c1.O=S(=O)([N-]S(=O)(=O)C(F)(F)F)C(F)(F)F
Conditions	mass density [kg/m3]	viscosity [mPa·s]
293.15 K, x2 = 0	1055.93	1.68
293.15 K, x2 = 0.0493	1119.77	2.14
293.15 K, x2 = 0.1001	1167.52	2.75
293.15 K, x2 = 0.1526	1207.48	3.44
293.15 K, x2 = 0.2001	1240.41	4.75
293.15 K, x2 = 0.3001	1291.51	7.22
293.15 K, x2 = 0.4013	1329.17	10.69
293.15 K, x2 = 0.5004	1358.85	15.69
293.15 K, x2 = 0.5995	1382.95	22.26
293.15 K, x2 = 0.6929	1401.02	29.27
293.15 K, x2 = 0.814	1415.81	40.15
293.15 K, x2 = 0.9001	1434.72	50.31
298.15 K, x2 = 0	1050.68	1.55
298.15 K, x2 = 0.0493	1114.58	1.97
298.15 K, x2 = 0.1001	1162.33	2.52
298.15 K, x2 = 0.1526	1202.28	3.17
298.15 K, x2 = 0.2001	1235.24	4.38
298.15 K, x2 = 0.3001	1286.4	6.59
298.15 K, x2 = 0.4013	1324.12	9.61
298.15 K, x2 = 0.5004	1353.84	13.44
298.15 K, x2 = 0.5995	1377.94	18.55
298.15 K, x2 = 0.6929	1396.05	24.32
298.15 K, x2 = 0.814	1410.84	32.91
298.15 K, x2 = 0.9001	1429.79	41.25
303.15 K, x2 = 0	1045.31	1.48
303.15 K, x2 = 0.0493	1109.25	1.83
303.15 K, x2 = 0.1001	1157.05	2.3
303.15 K, x2 = 0.1526	1197	2.98
303.15 K, x2 = 0.2001	1229.97	3.9
303.15 K, x2 = 0.3001	1281.21	5.87
303.15 K, x2 = 0.4013	1318.98	8.14
303.15 K, x2 = 0.5004	1348.71	11.56
303.15 K, x2 = 0.5995	1372.86	15.74
303.15 K, x2 = 0.6929	1390.95	20.81
303.15 K, x2 = 0.814	1405.72	27.46
303.15 K, x2 = 0.9001	1424.69	34.24
308.15 K, x2 = 0	1039.85	1.4
308.15 K, x2 = 0.0493	1103.89	1.73
308.15 K, x2 = 0.1001	1151.73	2.13
308.15 K, x2 = 0.1526	1191.76	2.78
308.15 K, x2 = 0.2001	1224.72	3.51
308.15 K, x2 = 0.3001	1276.02	5.33
308.15 K, x2 = 0.4013	1313.79	7.28
308.15 K, x2 = 0.5004	1343.59	10.05
308.15 K, x2 = 0.5995	1367.78	13.61
308.15 K, x2 = 0.6929	1385.91	17.63
308.15 K, x2 = 0.814	1400.7	23.24
308.15 K, x2 = 0.9001	1419.71	28.09
313.15 K, x2 = 0	1034.33	1.33
313.15 K, x2 = 0.0493	1098.48	1.63
313.15 K, x2 = 0.1001	1146.34	1.99
313.15 K, x2 = 0.1526	1186.34	2.55
313.15 K, x2 = 0.2001	1219.4	3.21
313.15 K, x2 = 0.3001	1270.76	4.72
313.15 K, x2 = 0.4013	1308.61	6.41
313.15 K, x2 = 0.5004	1338.44	8.82
313.15 K, x2 = 0.5995	1362.65	11.75
313.15 K, x2 = 0.6929	1380.83	15.03
313.15 K, x2 = 0.814	1395.6	19.76
313.15 K, x2 = 0.9001	1414.64	23.76
318.15 K, x2 = 0	1028.79	1.25
318.15 K, x2 = 0.0493	1093.01	1.53
318.15 K, x2 = 0.1001	1140.96	1.86
318.15 K, x2 = 0.1526	1181.02	2.36
318.15 K, x2 = 0.2001	1214.09	2.94
318.15 K, x2 = 0.3001	1265.51	4.23
318.15 K, x2 = 0.4013	1303.39	5.76
318.15 K, x2 = 0.5004	1333.28	7.74
318.15 K, x2 = 0.5995	1357.54	10.26
318.15 K, x2 = 0.6929	1375.74	13.01
318.15 K, x2 = 0.814	1390.55	16.82
318.15 K, x2 = 0.9001	1409.63	20.35
323.15 K, x2 = 0	1023.19	1.18
323.15 K, x2 = 0.0493	1087.48	1.46
323.15 K, x2 = 0.1001	1135.51	1.72
323.15 K, x2 = 0.1526	1175.61	2.21
323.15 K, x2 = 0.2001	1208.72	2.7
323.15 K, x2 = 0.3001	1260.23	3.92
323.15 K, x2 = 0.4013	1298.21	5.18
323.15 K, x2 = 0.5004	1328.11	6.91
323.15 K, x2 = 0.5995	1352.41	9.02
323.15 K, x2 = 0.6929	1370.64	11.4
323.15 K, x2 = 0.814	1385.49	14.41
323.15 K, x2 = 0.9001	1404.58	17.27
